Here are results for 24 compounds from patent US20240108006A1, “PESTICIDALLY ACTIVE HETEROAROMATIC COMPOUNDS” (SYNGENTA CROP PROTECTION AG, priority 2021, published 2024).

Type in all cases: in vivo
The test system of one experiment is Plutella xylostella. As to the kind of experiment: Example B8: Plutella xylostella (diamond back moth), artificial diet 24-well, eggs. The note with it: 192 h, application rate of 200 ppm, 8 days after infestation, read-out: effect in at least one of the two categories (mortality or growth inhibition). The method, then:
Example B8: Plutella xylostella (Diamond Back Moth)
24-well microtiter plates with artificial diet were treated with aqueous test solutions prepared from 10,000 ppm DMSO stock solutions by pipetting. After drying, Plutella eggs were pipetted through a plastic stencil onto a gel blotting paper and the plate was closed with it. The samples were assessed for mortality and growth inhibition in comparison to untreated samples 8 days after infestation.
The following compounds gave an effect of at least 80% in at least one of the two categories (mortality or growth inhibition) at an application rate of 200 ppm: […]

A further experiment deals with Chilo suppressalis. The experiment in a line: Example B1: Chilo suppressalis (striped rice stemborer), artificial diet, L2 larvae. As to conditions: 144 h, application rate of 200 ppm, 6 days after infestation, read-out: control in at least one of the three categories (mortality, anti-feedant effect, or growth inhibition). The method, then:
Example B1: Chilo suppressalis (Striped Rice Stemborer)
24-well microtiter plates with artificial diet were treated with aqueous test solutions prepared from 10,000 ppm DMSO stock solutions by pipetting. After drying, the plates were infested with L2 larvae (6-8 per well). The samples were assessed for mortality, anti-feeding effect, and growth inhibition in comparison to untreated samples 6 days after infestation. Control of Chilo suppressalis by a test sample is given when at least one of the categories mortality, anti-feedant effect, and growth inhibition is higher than the untreated sample.

The next experiment concerns Spodoptera littoralis. As to the kind of experiment: Example B9: Spodoptera littoralis (Egyptian cotton leaf worm), cotton leaf discs, L1 larvae. As to conditions: foliar, 72 h, application rate of 200 ppm, 3 days after infestation, read-out: control in at least one of the three categories (mortality, anti-feedant effect, or growth inhibition). How it is done:
Example B9: Spodoptera littoralis (Egyptian Cotton Leaf Worm)
Cotton leaf discs were placed onto agar in 24-well microtiter plates and sprayed with aqueous test solutions prepared from 10,000 ppm DMSO stock solutions. After drying the leaf discs were infested with five L1 larvae. The samples were assessed for mortality, anti-feeding effect, and growth inhibition in comparison to untreated samples 3 days after infestation. Control of Spodoptera littoralis by a test sample is given when at least one of the categories mortality, anti-feedant effect, and growth inhibition is higher than the untreated sample.

Regarding `COc1cc(NC(=O)N[C@@H](C)c2ncnn2-c2ncccn2)c(Br)cc1Br` [Example P200, 1-(2,4-dibromo-5-methoxy-phenyl)-3-[(1S)-1-(2-pyrimidin-2-yl-1,2,4-triazol-3-yl)ethyl]urea], in the experiment with Plutella xylostella, the percent effect (mortality or growth inhibition) at 200 ppm is at least 80%. Also, the percent control (mortality, anti-feedant effect or growth inhibition) at 200 ppm with Chilo suppressalis is at least 80%.

For the compound `COc1cc(NC(=O)N[C@@H](C)c2ncnn2-c2ncccn2)c(F)cc1Br` [Example P220, 1-(4-bromo-2-fluoro-5-methoxy-phenyl)-3-[(1S)-1-(2-pyrimidin-2-yl-1,2,4-triazol-3-yl)ethyl]urea], in the experiment with Plutella xylostella, the percent effect (mortality or growth inhibition) at 200 ppm was at least 80%. The percent control (mortality, anti-feedant effect or growth inhibition) at 200 ppm with Chilo suppressalis is at least 80%.

For the compound `C[C@H](NC(=O)Nc1ccc(Cl)cc1Oc1ccc(Cl)cc1)c1ncnn1-c1ncccn1` [Example P51, 1-[4-chloro-2-(4-chlorophenoxy)phenyl]-3-[(1S)-1-(2-pyrimidin-2-yl-1,2,4-triazol-3-yl)ethyl]urea], in the experiment with Plutella xylostella, the percent effect (mortality or growth inhibition) at 200 ppm was at least 80%. Besides, in the experiment on Chilo suppressalis, the percent control (mortality, anti-feedant effect or growth inhibition) at 200 ppm was at least 80%.

As to `C[C@H](NC(=O)Nc1cc(OC(F)(F)C(F)F)c(Cl)cc1Cl)c1nccnc1-c1ccc(C#N)cn1` [Example P245, 1-[(1S)-1-[3-(5-cyano-2-pyridyl)pyrazin-2-yl]ethyl]-3-[2,4-dichloro-5-(1,1,2,2-tetrafluoroethoxy)phenyl]urea], the percent effect (mortality or growth inhibition) at 200 ppm with Plutella xylostella is at least 80%. Further, the percent control (mortality, anti-feedant effect or growth inhibition) at 200 ppm in the experiment on Chilo suppressalis was at least 80%.

For the compound `COc1cc(OC)c(NC(=O)N[C@@H](C)c2ncnn2-c2ncccn2)cc1Cl` [Example P387, 1-(5-chloro-2,4-dimethoxy-phenyl)-3-[(1S)-1-(2-pyrimidin-2-yl-1,2,4-triazol-3-yl)ethyl]urea], the percent control (mortality, anti-feedant effect or growth inhibition) at 200 ppm in the experiment on Spodoptera littoralis was at least 80%.

On to `C[C@@H](c1ncnn1-c1ncccn1)N(C)C(=O)N(C)c1cnc(C(F)(F)F)cc1Cl` [Example P270, 1-[4-chloro-6-(trifluoromethyl)-3-pyridyl]-1,3-dimethyl-3-[(1S)-1-(2-pyrimidin-2-yl-1,2,4-triazol-3-yl)ethyl]urea], for which the percent effect (mortality or growth inhibition) at 200 ppm in the experiment on Plutella xylostella was at least 80%. Also, in the experiment with Chilo suppressalis, the percent control (mortality, anti-feedant effect or growth inhibition) at 200 ppm is at least 80%.

In the case of `C[C@H](NC(=O)Nc1ncc(C(F)(F)F)cc1Cl)c1ncnn1-c1ncccn1` [Example P25, 1-[3-chloro-5-(trifluoromethyl)-2-pyridyl]-3-[(1S)-1-(2-pyrimidin-2-yl-1,2,4-triazol-3-yl)ethyl]urea], in the experiment with Plutella xylostella, the percent effect (mortality or growth inhibition) at 200 ppm is at least 80%. Besides, in the experiment on Chilo suppressalis, the percent control (mortality, anti-feedant effect or growth inhibition) at 200 ppm is at least 80%.

For `C[C@H](NC(=O)Nc1ccccc1OC(F)F)c1ncnn1-c1ncccn1` [Example P107, 1-[2-(difluoromethoxy)phenyl]-3-[(1S)-1-(2-pyrimidin-2-yl-1,2,4-triazol-3-yl)ethyl]urea], the percent effect (mortality or growth inhibition) at 200 ppm with Plutella xylostella was at least 80%. For the same compound, the percent control (mortality, anti-feedant effect or growth inhibition) at 200 ppm in the experiment on Chilo suppressalis was at least 80%.

On to `C[C@H](NC(=O)Nc1ccc(C(F)(F)F)c(Cl)c1)c1ncnn1-c1ncccn1` [Example P128, 1-[3-chloro-4-(trifluoromethyl)phenyl]-3-[(1S)-1-(2-pyrimidin-2-yl-1,2,4-triazol-3-yl)ethyl]urea], for which the percent effect (mortality or growth inhibition) at 200 ppm in the experiment with Plutella xylostella was at least 80%. Moreover, in the experiment on Chilo suppressalis, the percent control (mortality, anti-feedant effect or growth inhibition) at 200 ppm was at least 80%.

`C[C@H](NC(=O)Nc1cc(F)c(Cl)cc1I)c1ncnn1-c1ncccn1` [Example P376, 1-(4-chloro-5-fluoro-2-iodo-phenyl)-3-[(1S)-1-(2-pyrimidin-2-yl-1,2,4-triazol-3-yl)ethyl]urea]: the percent effect (mortality or growth inhibition) at 200 ppm with Plutella xylostella is at least 80%. In addition, the percent control (mortality, anti-feedant effect or growth inhibition) at 200 ppm in the experiment with Chilo suppressalis is at least 80%.

`C[C@H](NC(=O)Nc1cc(C(F)(F)F)c(Cl)cc1Cl)c1ncnn1-c1ncc(C(=O)N(C)C)s1` [Example P170, 2-[5-[(1S)-1-[[2,4-dichloro-5-(trifluoromethyl)phenyl]carbamoyl-amino]ethyl]-1,2,4-triazol-1-yl]-N, N-dimethyl-thiazole-5-carboxamide]: the percent effect (mortality or growth inhibition) at 200 ppm with Plutella xylostella was at least 80%. Also, the percent control (mortality, anti-feedant effect or growth inhibition) at 200 ppm in the experiment on Chilo suppressalis was at least 80%.

`C[C@H](NC(=O)Nc1cc(C(F)(F)F)c(Cl)cc1Cl)c1ncnn1-c1ccc(C(=O)N2CCOCC2)cn1` [Example P175, 1-[2,4-dichloro-5-(trifluoromethyl)phenyl]-3-[(1S)-1-[2-[5-(morpholine-4-carbonyl)-2-pyridyl]-1,2,4-triazol-3-yl]ethyl]urea]: the percent effect (mortality or growth inhibition) at 200 ppm with Plutella xylostella was at least 80%.

As to `Cc1cc(Br)c(Cl)cc1NC(=O)N[C@@H](C)c1ncnn1-c1ncccn1` [Example P299, 1-(4-bromo-5-chloro-2-methyl-phenyl)-3-[(1S)-1-(2-pyrimidin-2-yl-1,2,4-triazol-3-yl)ethyl]urea], the percent effect (mortality or growth inhibition) at 200 ppm in the experiment on Plutella xylostella is at least 80%. For the same compound, the percent control (mortality, anti-feedant effect or growth inhibition) at 200 ppm in the experiment with Chilo suppressalis was at least 80%.

Take `C[C@H](NC(=O)Nc1ccc(C(F)(F)F)c(Cl)c1)c1nccnc1-c1ccc(C#N)cn1` [Example P9, 1-[3-chloro-4-(trifluoromethyl)phenyl]-3-[(1S)-1-[3-(5-cyano-2-pyridyl)pyrazin-2-yl]ethyl]urea]: the percent effect (mortality or growth inhibition) at 200 ppm in the experiment with Plutella xylostella is at least 80%. Also, the percent control (mortality, anti-feedant effect or growth inhibition) at 200 ppm with Chilo suppressalis is at least 80%.

For `C[C@H](NC(=O)N1CCc2cc(Br)ccc21)c1ncnn1-c1ncccn1` [Example P102, 5-bromo-N-[(1S)-1-(2-pyrimidin-2-yl-1,2,4-triazol-3-yl)ethyl]indoline-1-carboxamide], in the experiment on Spodoptera littoralis, the percent control (mortality, anti-feedant effect or growth inhibition) at 200 ppm is at least 80%.

With `CC(C)OC(=O)c1cc(NC(=O)N[C@@H](C)c2ncnn2-c2ncccn2)c(F)cc1Cl` [Example P217, isopropyl 2-chloro-4-fluoro-5-[[(1S)-1-(2-pyrimidin-2-yl-1,2,4-triazol-3-yl)ethyl]carbamoylamino]benzoate], the percent effect (mortality or growth inhibition) at 200 ppm in the experiment on Plutella xylostella is at least 80%. Also, in the experiment with Chilo suppressalis, the percent control (mortality, anti-feedant effect or growth inhibition) at 200 ppm is at least 80%.

As for `COC(=O)c1cc(NC(=O)N[C@@H](C)c2ncnn2-c2ncccn2)c(F)cc1Br` [Example P228, methyl 2-bromo-4-fluoro-5-[[(1S)-1-(2-pyrimidin-2-yl-1,2,4-triazol-3-yl)ethyl]carbamoylamino]benzoate], the percent effect (mortality or growth inhibition) at 200 ppm with Plutella xylostella was at least 80%.

As for `COc1cc(Br)c(Cl)cc1NC(=O)N[C@@H](C)c1ncnn1-c1ncccn1` [Example P368, 1-(4-bromo-5-chloro-2-methoxy-phenyl)-3-[(1S)-1-(2-pyrimidin-2-yl-1,2,4-triazol-3-yl)ethyl]urea], the percent effect (mortality or growth inhibition) at 200 ppm in the experiment with Plutella xylostella was at least 80%.

As to `C[C@H](NC(=O)N1CCc2ccc(C(F)(F)F)cc21)c1ncnn1-c1ncccn1` [Example P50, N-[(1S)-1-(2-pyrimidin-2-yl-1,2,4-triazol-3-yl)ethyl]-6-(trifluoromethyl)indoline-1-carboxamide], the percent effect (mortality or growth inhibition) at 200 ppm in the experiment on Plutella xylostella is at least 80%. Moreover, in the experiment on Chilo suppressalis, the percent control (mortality, anti-feedant effect or growth inhibition) at 200 ppm was at least 80%.

Consider `C[C@H](NC(=O)Nc1ccc(C(F)(F)F)c(Cl)c1)c1nccnc1-c1ncccn1` [Example P10, 1-[3-chloro-4-(trifluoromethyl)phenyl]-3-[(1S)-1-(3-pyrimidin-2-ylpyrazin-2-yl)ethyl]urea], for which, in the experiment with Plutella xylostella, the percent effect (mortality or growth inhibition) at 200 ppm was at least 80%. In addition, in the experiment with Chilo suppressalis, the percent control (mortality, anti-feedant effect or growth inhibition) at 200 ppm is at least 80%.

Consider `CC(NC(=O)Nc1cc(C(F)(F)F)c(Cl)cc1Br)c1nccnc1-n1nccn1` (centres unmarked) [Example P260, 1-[2-bromo-4-chloro-5-(trifluoromethyl)phenyl]-3-[1-[3-(triazol-2-yl)pyrazin-2-yl]ethyl]urea], for which the percent effect (mortality or growth inhibition) at 200 ppm in the experiment with Plutella xylostella is at least 80%. Further, in the experiment on Chilo suppressalis, the percent control (mortality, anti-feedant effect or growth inhibition) at 200 ppm was at least 80%.

In the case of `C[C@H](NC(=O)Nc1cc(OCC#N)c(Cl)cc1Cl)c1ncnn1-c1ncccn1` [Example P161, 1-[2,4-dichloro-5-(cyanomethoxy)phenyl]-3-[(1S)-1-(2-pyrimidin-2-yl-1,2,4-triazol-3-yl)ethyl]urea], the percent effect (mortality or growth inhibition) at 200 ppm in the experiment on Plutella xylostella was at least 80%.

On to `C[C@H](NC(=O)Nc1c(Cl)cc(Cl)c(OC(F)(F)C(F)F)c1I)c1nccnc1-c1ccc(C#N)cn1` [Example P275, 1-[(1S)-1-[3-(5-cyano-2-pyridyl)pyrazin-2-yl]ethyl]-3-[4,6-dichloro-2-iodo-3-(1,1,2,2-tetrafluoroethoxy)phenyl]urea], for which the percent effect (mortality or growth inhibition) at 200 ppm in the experiment on Plutella xylostella is at least 80%. In the experiment with Chilo suppressalis, the percent control (mortality, anti-feedant effect or growth inhibition) at 200 ppm was at least 80%.

As to `C[C@H](NC(=O)Nc1cc(Cl)c(OC(F)(F)C(F)C(F)(F)F)cc1Cl)c1ncnn1-c1ncccn1` (stereo partly drawn) [Example P211, 1-[2,5-dichloro-4-(1,1,2,3,3,3-hexafluoropropoxy)phenyl]-3-[(1S)-1-(2-pyrimidin-2-yl-1,2,4-triazol-3-yl)ethyl]urea], in the experiment on Plutella xylostella, the percent effect (mortality or growth inhibition) at 200 ppm was at least 80%.
